Tests used:
Experiment in all cases: area under concentration-response curve (viability) (AUC (a.u.)); higher = less active
Details in all cases: 48 h
CU-ACC2 = tested on: CU-ACC2
Outline: (§1)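 Three adrenocortical carcinoma cell lines were plated in 1,536-well plates at 500–1,000 cells/well in 5 µL medium, and 23 nL of each library compound was added at 11 concentrations. After 48 h, CellTiter-Glo was applied for 15 minutes at room temperature before luminescence was read. Each plate's signals were normalised to vehicle and empty-well controls. AC50 and area under the curve were taken from fitted concentration-response curves, with only inhibitory or non-responding curve classes retained.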

CU-ACC1 = tested on: CU-ACC1
Outline: as §1

NCI-H295R = tested on: NCI-H295R
Outline: as §1

Row | Structure (SMILES) | area under concentration-response curve (CU-ACC2) | area under concentration-response curve (CU-ACC1) | area under concentration-response curve (NCI-H295R)
1 | Clc1ccc2c(N3CCN(CCCN4CCN(c5ccnc6cc(Cl)ccc56)CC4)CC3)ccnc2c1 | 450 | 433 | 451
2 | NC/1=N/C(=O)N(C[C@@H](CO)OC[P](O)(O)=O)/C=C1 | 522 | 465 | 496
3 | CC12CC3CC(C)(C1)CC(N)(C3)C2 | 431 | 437 | 457
4 | CC1(C)CCC(=C(CN2CCN(CC2)C3=CC=C(C=C3)C(=O)N[S+]([O-])(=O)C4=CC(=C(N[C@H](CCN5CCOCC5)CSC6=CC=CC=C6)C=C4)[S+]([O-])(=O)C(F)(F)F)\C1)/C7=CC=C(Cl)C=C7 | 373 | 439 | 463
5 | Cc1nnc(N[S+](=O)([O-])c2ccc(N)cc2)s1 | 591 | 496 | 546
6 | CC(=O)NC(C)c1ccc(Oc2ccc(OC(C)C)cc2)cc1 (stereo not drawn) | 605 | 539 | 547
7 | CO[C@H]1O[C@@H]2O[C@@]3(C)CC[C@H]4[C@H](C)CC[C@@H]([C@H]1C)[C@@]24OO3 | 553 | 470 | 506
8 | C[C@]12CC[C@H]3[C@@H](C\C=C/4C[C@@H](O)CC[C@]34C)[C@@H]1CCC2=O | 591 | 523 | 479
9 | O=[S+]([O-])(c1cccc2cnccc12)N1CCCNCC1 | 560 | 502 | 534
10 | Cc1csc(NC(=O)c2sc3nc4c(c(C(F)(F)F)c3c2N)CCC4)n1 | 494 | 441 | 472
11 | OC[C@H]1O[C@H]([C@H](O)[C@@H]1O)N2\C=C/C(=O)NC2=O | 535 | 485 | 502
12 | O=C1[O][Pt]2([NH]C3CCCCC3[NH]2)[O]C1=O (stereo not drawn) | 631 | 564 | 565
13 | CN1CCN(CCCNc2ncc(Cl)c(-c3cc4c(C(=O)NC5CC5)cccc4s3)n2)CC1 | 557 | 468 | 492
14 | CNC[C@H](O)c1ccc(O)c(O)c1 | 608 | 530 | 592
15 | Cc1nn(C)c(COc2ccc(N3CCN([S+](=O)([O-])N(C)C)CC3)cc2)c1-c1cccc2c(CCCOc3cccc4ccccc34)c(C(=O)O)n(CCN3CCOCC3)c12 | 580 | 517 | 508
16 | CN1\C(=C(\O)C2=C(C=CS2)[S+]1([O-])=O)C(=O)NC3=CC=CC=N3 | 616 | 548 | 573
17 | CCC(=O)N1CCOc2c(cc(-c3cc(OC)cc(OC)c3)cc2C(=O)N[C@H]2CCCN(C)C2)C1 | 550 | 500 | 463
18 | CNC(=O)c1c(C)oc2cc(Oc3ncnc4cc(OC)c(OC)cc34)ccc12 | 624 | 535 | 593
19 | CC(C)NCC(O)COc1ccc(CCOCC2CC2)cc1 (stereo not drawn) | 560 | 493 | 536
20 | Nc1ncnc2c1ncn2[C@@H]1O[C@H](CO)[C@@H](O)[C@@H]1O | 582 | 496 | 515
21 | C[C@H]1O[C@H](O[C@H]2[C@H](O)[C@@H](O)[C@@H](O[C@H]3[C@H](O)[C@@H](O)C(O)O[C@@H]3CO)O[C@@H]2CO)[C@H](O)[C@@H](O)[C@@H]1N[C@H]1C=C(CO)[C@@H](O)[C@H](O)[C@H]1O (stereo partly drawn) | 482 | 414 | 447

Reference: the supplement of paper PMC10949913
